Patent US7119088B2, “Triazole compounds useful in therapy” (Pfizer Inc., priority 2003, dated 2006)
Where a name gives a salt, the structure may show the parent alone.

Target: T1, human V1A receptor (Homo sapiens, UniProt P37288)
T1 construct: host or cells: CHO (CHO-hV1A), membrane preparation
Assay: V1A filter binding assay (screen 1.0)
Details: [3H]-AVP binding to CHO-hV1A membranes; Ki by Cheng-Prusoff
Method: 1.0 V1A Filter Binding Assay
Receptor binding assays were performed on cellular membranes prepared from CHO cells stably expressing the human V1A receptor, (CHO-hV1A). The CHO-hV1A cell line was kindly provided under a licensing agreement by Marc Thibonnier, Dept. of Medicine, Case Western Reserve University School of Medicine, Cleveland, Ohio. CHO-hV1A cells were routinely maintained at 37° C. in humidified atmosphere with 5% CO2 in DMEM/Hams F12 nutrient mix supplemented with 10% fetal bovine serum, 2 mM L-glutamine, 15 mM HEPES and 400 μg/ml G418. For bulk production of cell pellets, adherent CHO-hV1A cells were grown to confluency of 90–100% in 850 cm^2 roller bottles containing a medium of DMEM/Hams F12 Nutrient Mix supplemented with 10% fetal bovine serum, 2 mM L-glutamine and 15 mM HEPES. Confluent CHO-hV1A cells were washed with phosphate-buffered saline (PBS), harvested into ice cold PBS and centrifuged at 1,000 rpm. Cell pellets were stored at −80° C. until use. Cell pellets were thawed on ice and homogenised in membrane preparation buffer consisting of 50 mM Tris-HCl, pH 7.4, 5 mM MgCl2 and supplemented with a protease inhibitor cocktail, (Roche). The cell homogenate was centrifuged at 1000 rpm, 10 min, 4° C. and the supernatant was removed and stored on ice. The remaining pellet was homogenised and centrifuged as before. The supernatants were pooled and centrifuged at 25,000×g for 30 min at 4° C. The pellet was resuspended in freezing buffer consisting of 50 mM Tris-HCl, pH 7.4, 5 mM MgCl2 and 20% glycerol and stored in small aliquots at −80° C. until use. Protein concentration was determined using Bradford reagent and BSA as a standard.
Protein linearity followed by saturation binding studies were performed on each new batch of membrane. Membrane concentration was chosen that gave specific binding on the linear portion of the curve.
Compounds were tested for their effects on [^3H]-AVP binding to CHO-hV1A membranes, (^3H-AVP; specific activity 65.5 Ci/mmol; NEN Life Sciences). Compounds were solubilised in dimethylsulfoxide (DMSO) and diluted to working concentration of 10% DMSO with assay buffer containing 50 mM Tris-HCL pH 7.4, 5 mM MgCl2 and 0.05% BSA. […] The binding reaction was initiated by the addition of 200 μl membrane and the plates were gently shaken for 60 min at room temperature. […] The filters were washed three times with 1 ml ice cold wash buffer containing 50 mM Tris-HCL pH 7.4 and 5 mM MgCl2. The plates were dried and 50 μl Microscint-O (Packard instruments) was added to each well. The plates were sealed and counted on a TopCount Microplate Scintillation Counter (Packard Instruments). Non-specific binding (NSB) was determined using 1 μM unlabelled d(CH2)5Tyr(Me)AVP ([β-mercapto-β,β-cyclopentamethylenepropionyl,0-Me-Tyr^2,Arg^8]-vasopressin ) (βMCPVP), (Sigma). The radioligand binding data was analysed using a four parameter logistic equation with the min forced to 0%. […] Specific binding was calculated by subtracting the mean NSB cpm from the mean Total cpm. For test compounds the amount of ligand bound to the receptor was expressed as % bound=(sample cpm—mean NSB cpm)/specific binding cpm×100. The % bound was plotted against the concentration of test compound and a sigmoidal curve was fitted. The inhibitory dissociation constant (Ki) was calculated using the Cheng-Prusoff equation: Ki=IC50/(1+[L]/Kd) where [L] is the concentration of ligand present in the well and Kd is the dissociation constant of the radioligand obtained from Scatchard plot analysis.

T1 sequence (P37288 whole entry): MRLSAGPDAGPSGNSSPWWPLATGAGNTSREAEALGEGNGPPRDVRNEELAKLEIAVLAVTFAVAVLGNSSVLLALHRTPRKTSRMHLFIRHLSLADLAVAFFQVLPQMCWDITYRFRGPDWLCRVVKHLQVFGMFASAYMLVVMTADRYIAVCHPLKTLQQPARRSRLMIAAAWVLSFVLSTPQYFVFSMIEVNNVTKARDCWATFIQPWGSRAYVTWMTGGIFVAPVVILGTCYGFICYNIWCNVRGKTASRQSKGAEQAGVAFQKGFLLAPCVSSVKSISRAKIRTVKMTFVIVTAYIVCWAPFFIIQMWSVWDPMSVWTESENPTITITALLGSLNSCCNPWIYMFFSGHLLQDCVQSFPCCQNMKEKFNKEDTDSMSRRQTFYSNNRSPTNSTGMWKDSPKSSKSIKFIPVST

SMILES	Ki
CN1CCOC(CN2Cc3cc(Cl)ccc3-n3c(nnc3C3CCN(c4ccccn4)CC3)C2)C1 (single isomer, unassigned) [Example 73, 8-Chloro-5-(4-methyl-morpholin-2-ylmethyl)-1-(3,4,5,6-tetrahydro-2H-[1,2′]bipyridinyl-4-yl)-5,6-dihydro-4H-2,3,5,10b-tetraaza-benzo[e]azulene]	6.84 nM
CN1CCOC(CN2Cc3cc(Cl)ccc3-n3c(nnc3C3CCN(c4ccccn4)CC3)C2)C1 (single isomer, unassigned) [Example 74, 8-Chloro-5-(4-methyl-morpholin-2-ylmethyl)-1-(3,4,5,6-tetrahydro-2H-[1,2′]bipyridinyl-4-yl)-5,6-dihydro-4H-2,3,5,10b-tetraaza-benzo[e]azulene]	6.02 nM
CC(C)N1Cc2cc(Cl)ccc2-n2c(nnc2C2CCN(c3ccccn3)CC2)C1 [Example 6, 8-Chloro-5-isopropyl-1-(3,4,5,6-tetrahydro-2H-[1,2′]bipyridinyl-4-yl)-5,6-dihydro-4H-2,3,5,10b-tetraaza-benzo[e]azulene trihydrochloride]	2.37 nM
CN1Cc2cc(Cl)ccc2-n2c(nnc2C2CCN(c3ncccn3)CC2)C1 [Example 13, 8-Chloro-5-methyl-1-(1-pyrimidin-2-yl-piperidin-4-yl)-5,6-dihydro-4H-2,3,5,10b-tetraaza-benzo[e]azulene]	13.9 nM
CS(=O)(=O)N1Cc2cc(Cl)ccc2-n2c(nnc2C2CCN(c3ncccn3)CC2)C1 [Example 15, 8-Chloro-5-methanesulfonyl-1-(1-pyrimidin-2-yl-piperidin-4-yl)-5,6-dihydro-4H-2,3,5,10b-tetraaza-benzo[e]azulene]	4.71 nM
CN1CCc2cc(Cl)ccc2-n2c(nnc2C2CCN(c3ccccn3)CC2)C1 [Example 24, 13-Chloro-8-methyl-3-(3,4,5,6-tetrahydro-2H-[1,2′]bipyridinyl-4-yl)-2,4,5,8-tetraaza-tricyclo[9.4.0.0*2,6*]pentadeca-1(11),3,5,12,14-pentaene]	1 nM
Clc1ccc2c(c1)CCOCc1nnc(C3CCN(c4ccccn4)CC3)n1-2 [Example 27, 13-Chloro-3-(3,4,5,6-tetrahydro-2H-[1,2′]bipyridinyl-4-yl)-8-oxa-2,4,5-triaza-tricyclo[9.4.0.0*2,6*]pentadeca-1(11),3,5,12,14-pentaene]	1.25 nM
CN(C)CC(=O)N1Cc2cc(Cl)ccc2-n2c(nnc2C2CCN(c3ccccn3)CC2)C1 [Example 38, 1-[8-Chloro-1-(3,4,5,6-tetrahydro-2H-[1,2′]bipyridinyl-4-yl)-4H,6H-2,3,5,10b-tetraaza-benzo[e]azulen-5-yl]-2-dimethylamino-ethanone]	4.63 nM
O=C(N1CCOCC1)N1Cc2cc(Cl)ccc2-n2c(nnc2C2CCN(c3ccccn3)CC2)C1 [Example 59]	1.32 nM
Clc1ccc2c(c1)CN(c1ncccn1)Cc1nnc(C3CCN(c4ccccn4)CC3)n1-2 [Example 93, 8-Chloro-5-pyrimidin-2-yl-1-(3,4,5,6-tetrahydro-2H-[1,2′]bipyridinyl-4-yl)-5,6-dihydro-4H-2,3,5,10b-tetraaza-benzo[e]azulene]	2.33 nM
CN(C)S(=O)(=O)N1Cc2cc(Cl)ccc2-n2c(nnc2C2CCN(c3ncccn3)CC2)C1 [Example 100, 8-Chloro-1-(1-pyrimidin-2-yl-piperidin-4-yl)-4H,6H-2,3,5,10b-tetraaza-benzo[e]azulene-5-sulphonic acid dimethylamide]	0.77 nM
CN1CCc2nnc(C3CCN(c4ccccn4)CC3)n2-c2ccc(Cl)cc2C1 [Example 102, 13-Chloro-9-methyl-3-(3,4,5,6-tetrahydro-2H-[1,2′]bipyridinyl-4-yl)-2,4,5,9-tetraaza-tricyclo[9.4.0.0*2,6*]pentadeca-1(11),3,5,12,14-pentaene]	4.16 nM
CN1CCc2cc(Cl)ccc2-n2c(nnc2C2CCN(c3ncccn3)CC2)C1 [Example 103, 13-Chloro-8-methyl-3-(1-pyrimidin-2-yl-piperidin-4-yl)-2,4,5,8-tetraaza-tricyclo[9.4.0.0*2,6*]pentadeca-1(11),3,5,12,14-pentaene]	2.02 nM
